As usually defined, the IC50 is the concentration that inhibits the measured activity by half.

Read-outs that look alike come from different tables or passages of the source. Ends that are not written are not given here.

Experimental findings from paper PMC2845622, “An Expanded Self-Antigen Peptidome Is Carried by the Human Lymph As Compared to the Plasma” (PLoS ONE, 2010) are described below.

Test [1] concerns the target HLA-DR4 (HLA-DRA*0101,-DRB1*0401) (Homo sapiens, UniProt P01903+P01911, A100K/A169T/F76Y/I96L/K127E/L162R/M171V/N62H/P40V/Q125Y/R42H/S133A/S149N/S66Y/V115G/V209L/W38E). As to the kind of experiment: Competition fluorescence polarization peptide binding assay, HLA-DR4 with HLA-DM. (Fluorescence polarisation rises when a labelled molecule tumbles more slowly, as on binding a larger partner.)

For test [2], the system named is lymph node T cells of HLA-DR1 or HLA-DR4 transgenic mice. Description: T cell proliferation (thymidine incorporation) in lymph nodes from peptide immunized mice. The settings on record: mice immunized with 100 µg peptide in complete Freund's adjuvant, lymph nodes 14 days later, 72 h culture with titrated peptide. Type of test: cell-based, mouse. Here is the method:
Finally we asked whether any of the tight-binding peptides, which also were conserved between mouse and human, could be recognized by peripheral T cells. HLA-DR1 or HLA-DR4 transgenic mice were immunized with 100 µg of several of the extracellular matrix peptides in complete Freund's adjuvant in the flanks and nape of the neck. Draining lymph nodes were collected 14 days later and reactive T cells analyzed by proliferation assay with thymidine incorporation.
HLA-DR1 and HLA-DR4 mice were immunized in the flanks and nape of the neck with 100 micrograms of peptide emulsion in Freund's adjuvant. Two weeks later popliteal and axillary lymph nodes were harvested and tested in proliferation assay. Briefly 6×10^5 cells were seeded in a 96 well plate with or without titrated amount of the immunizing peptide for 72 hours. Thymidine ([…]) was added 18 hours before cell harvesting. Cells were harvested on a Tomtec harvester (Model 94-3-468) and incorporated thymidine counted on a liquid scintillation counter (1450 Microbeta Wallac Trilux).
A general note: Incorporation of labelled thymidine or its analogues reports DNA synthesis.

In test [3] the target is HLA-DR1 (HLA-DRA*0101,-DRB1*0101) (Homo sapiens, UniProt P01903+P01911, A100R/D57E/F55L/F60I/F76Y/I96L/L162R/M171V/P40L/Q125E/R42F/V115G/Y59C). As to the kind of experiment: Competition fluorescence polarization peptide binding assay, HLA-DR1. Particulars: competition with Alexa488-HA peptide 25 nM, HLA-DR1 100 nM, 3 days at 37°C, citrate pH 5/5.5; mean of single fit to triplicate values.

Setting [4] is: competition with Alexa488-HA peptide 25 nM, HLA-DR4 and HLA-DM 100 nM each, 1 mM DTT, 3 days at 37°C, citrate pH 5/5.5, mean of single fit to triplicate values, read-out: DR4 IC50.

As to Ac-DPFRLQSTSQHN [dpFRLQsTsQHn], the IC50 in test [1] (setting [4]) worked out at 1.3 µM. Besides, the “Proliferative response of draining lymph node T cells to immunizing peptide” value in test [2] is reported as “significant proliferation index”.

Ac-EDTFAHLTPTPT [edtFAHLTPTPT] returned an IC50 in test [3] of 1.7 µM.

With Ac-GALLGAPPPLVPAP [gaLLGAPPPLVpap], the IC50 in test [3] amounted to 10.8 µM; in test [1] (setting [4]) it was 8.8 µM.

On to Ac-HQVSINNTAVMQRL [hqVSINNTAVMqrl], for which the IC50 in test [3] is 41.6 µM; in test [1] (setting [4]), 4.7 µM.

Ac-KNFASVQGVSLESG [knFASVQGVSLesg] yielded an IC50 in test [3] of 0.42 µM.

Consider “Ac-NGVVGPTGPVGAAGP-NH2 [ngvVGPTGPVGAagp]”, for which the IC50 in test [1] (setting [4]) was more than 100 µM.

For “Ac-NGVVGPTGPVGAAGPA-NH2 [ngVVGPTGPVGaagpa]”, the IC50 was 18 µM in test [3] and more than 100 µM in test [1] (setting [4]).

Turning to Ac-PGALLGAPPPLVPAP [pgaLLGAPPPLVpap], in test [1], the IC50 was more than 100 µM.

For Ac-PQGFQGNPGEPGE [pqgFQGNPGEPGe], the IC50 in test [3] was 0.8 µM; in test [1] (setting [4]), more than 100 µM.

With Ac-SPWIDASTAIDA [spWIDASTAIDa], the IC50 in test [1] (setting [4]) came to 60.1 µM.

In the case of MGPMGPRGPPGPA-NH2 [MGPMGPRGPpgpa], in test [1] (setting [4]), the IC50 is more than 100 µM.

As to MLQGTSSVLLLWG-NH2 [mLQGTsSVLLlwg], the IC50 in test [3] amounted to 62.4 µM; in test [1] (setting [4]), 79.6 µM.

In the case of NYAILRNLQP [nYAILRNLQP], the IC50 turned out to be 54.6 µM in test [3] and 56.4 µM in test [1] (setting [4]).
